Measurements taken from US20190202836A1, “SELECTIVE DUAL INHIBITORS OF PI3 DELTA AND GAMMA PROTEIN KINASES” (Rhizen Pharmaceuticals SA, priority 2014, published 2019).

Key:
[1] = Metabolic stability in dog liver microsomes; format: in vitro ADME
[2] = Metabolic stability in monkey liver microsomes; format: in vitro ADME
Procedure: Metabolic stability studies were conducted on Compounds A, A1, and A2 as well as Example 128 of WO 2012/151525 using mouse, rat, dog, monkey, and human liver microsomes. The protocol for the studies with mouse, rat, and human liver microsomes (all from BD Gentest, USA) is provided below. 0.4 mg protein was preincubated with 2 mM NADPH (cofactor) in phosphate buffer (pH-7.4) for 15 minutes at 37° C. and then added with 1 μM test item and incubated further for 60 minutes in triplicate. The reaction mixture was terminated with methanol containing an internal standard and centrifuged further to analyze the test item remaining in the supernatant by LC-MS/MS. The percent parent compound remaining was calculated in comparison with similar samples terminated at 0 minutes.

[3] = Plasma protein binding (equilibrium dialysis), mouse; format: in vitro ADME; details: pH 7.4, 37° C.
Procedure: (§1) Below is provided the procedure for measuring plasma protein binding (using an equilibrium dialysis method). 745 μL of plasma was transferred into a 2 ml micro centrifuge tube. To that 5 μL of Compound A1 (150 μM) was added. Samples were mixed in the table top vortexer for 2 minutes. 50 μL plasma (n=2) was transferred in a pre-labeled 1.5 mL micro centrifuge tube treated as 0 hour sample.
(§2) The remaining 650 μL plasma sample were incubated for 30 minutes at 37° C. in a water bath. After 30 minute incubation, 50 μL plasma (n=2) was removed in a pre-labelled 1.5 mL micro centrifuge tube treated as 0.5 hour sample. 200 μL of the plasma sample (n=2) was transferred into the sample chamber which was indicated by the red ring. The red insert was placed into the base plate and 350 μL of buffer was transferred into the buffer chamber. Plates were incubated at 37° C. at approximately 100 RPM on an orbital shaker or 20 RPM on an up-and-down shaker for 4 hours. 50 μL of post dialysis-sample from the buffer and the plasma chambers were transferred into a pre-labelled micro centrifuged tube. 50 μL of plasma was added to the buffer samples and an equal volume of buffer (KH2PO4 Buffer pH 7.4) to the collected plasma samples. 150 μL of methanol containing internal standard (Tolbutamide 250 ng/ml) was added to precipitate the protein and release compound. […]

[4] = Plasma protein binding (equilibrium dialysis), human; format: in vitro ADME; details: pH 7.4, 37° C.
Procedure: as §1, §2

[5] = Oral pharmacokinetics in mice; format: in vivo; details: mouse, plasma, 10 mg/kg
PI3Kδ [6] = target: T1, PI3Kδ (Homo sapiens, UniProt O00329); assay: Assay 1: Fluorescent (HTRF) determination of PI3 kinase enzyme activity, PI3Kδ; format: biochemical
T1 sequence (O00329 whole entry, canonical isoform): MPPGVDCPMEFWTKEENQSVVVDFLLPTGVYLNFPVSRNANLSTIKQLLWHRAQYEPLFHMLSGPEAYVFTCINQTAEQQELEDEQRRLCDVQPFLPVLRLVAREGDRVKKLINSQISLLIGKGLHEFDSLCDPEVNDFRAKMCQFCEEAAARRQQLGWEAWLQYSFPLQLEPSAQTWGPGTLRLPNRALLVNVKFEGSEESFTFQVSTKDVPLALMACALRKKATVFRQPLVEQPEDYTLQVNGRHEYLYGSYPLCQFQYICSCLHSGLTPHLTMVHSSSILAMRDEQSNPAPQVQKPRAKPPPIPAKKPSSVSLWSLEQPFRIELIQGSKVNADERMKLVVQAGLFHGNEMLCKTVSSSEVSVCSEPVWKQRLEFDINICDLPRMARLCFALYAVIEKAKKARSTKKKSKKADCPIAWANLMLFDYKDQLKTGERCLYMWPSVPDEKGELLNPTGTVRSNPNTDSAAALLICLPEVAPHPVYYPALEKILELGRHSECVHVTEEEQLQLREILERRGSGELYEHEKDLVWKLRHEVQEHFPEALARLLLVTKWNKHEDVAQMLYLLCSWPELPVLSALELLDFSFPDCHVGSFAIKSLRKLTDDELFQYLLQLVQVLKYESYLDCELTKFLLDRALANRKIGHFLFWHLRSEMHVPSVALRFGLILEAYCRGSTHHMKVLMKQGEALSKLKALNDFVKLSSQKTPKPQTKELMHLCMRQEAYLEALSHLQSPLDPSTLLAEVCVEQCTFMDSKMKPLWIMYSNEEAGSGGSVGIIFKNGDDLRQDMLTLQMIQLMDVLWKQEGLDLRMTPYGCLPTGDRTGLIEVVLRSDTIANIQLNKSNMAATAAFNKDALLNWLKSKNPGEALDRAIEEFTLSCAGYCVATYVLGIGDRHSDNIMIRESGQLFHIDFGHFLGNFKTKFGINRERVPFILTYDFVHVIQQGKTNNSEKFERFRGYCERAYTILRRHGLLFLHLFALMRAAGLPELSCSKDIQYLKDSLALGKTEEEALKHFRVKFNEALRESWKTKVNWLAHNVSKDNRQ
T1 sequence (P27986 whole entry partner, canonical isoform): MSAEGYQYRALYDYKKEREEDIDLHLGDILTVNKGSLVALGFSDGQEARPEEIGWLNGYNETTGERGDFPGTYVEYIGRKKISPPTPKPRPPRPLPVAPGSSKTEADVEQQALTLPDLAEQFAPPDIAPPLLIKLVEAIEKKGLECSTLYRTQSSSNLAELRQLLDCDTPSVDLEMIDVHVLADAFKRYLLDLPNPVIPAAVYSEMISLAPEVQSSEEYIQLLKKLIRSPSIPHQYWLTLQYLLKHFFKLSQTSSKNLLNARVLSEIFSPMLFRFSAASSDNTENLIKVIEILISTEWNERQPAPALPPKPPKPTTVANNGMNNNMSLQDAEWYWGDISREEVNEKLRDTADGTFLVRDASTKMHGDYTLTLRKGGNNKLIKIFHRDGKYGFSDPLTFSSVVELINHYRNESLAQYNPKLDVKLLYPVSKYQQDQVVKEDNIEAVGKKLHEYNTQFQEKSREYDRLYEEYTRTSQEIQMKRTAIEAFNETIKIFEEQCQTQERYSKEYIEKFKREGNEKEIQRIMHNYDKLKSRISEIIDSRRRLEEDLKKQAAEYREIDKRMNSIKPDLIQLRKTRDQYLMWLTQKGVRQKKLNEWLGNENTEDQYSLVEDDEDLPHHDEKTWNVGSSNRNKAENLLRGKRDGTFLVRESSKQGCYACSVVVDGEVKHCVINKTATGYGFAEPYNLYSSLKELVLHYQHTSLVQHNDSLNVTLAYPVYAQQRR
Excerpt: (§3) Phosphoinositide 3 kinases (PI3K) belong to a class of lipid kinases that play a critical role in the regulation of several key cellular processes. The PI3K are capable of phosphorylating the 3-hydroxy position of phosphoinositols thereby generating second messengers involved in downstream signaling events. The homogenous time resolved fluorescence (HTRF) assay allows detection of 3,4,5-triphosphate (PIPS) formed as a result of phosphorylation of phosphotidylinositol 4,5-biphosphate (PIP2) by PI3K isoforms such as α, β, γ or δ.
(§4) PI3K isoform activity for α, β, γ or δ was determined using a PI3K human HTRF™ Assay Kit (Millipore, Billerica, Mass.) with modifications. All incubations were carried out at room temperature. 0.5 μl of 40× inhibitor (in 100% DMSO) or 100% DMSO were added to each well of a 384-well white plate (Greiner Bio-One, Monroe, N.C.) containing 14.5 μl 1× reaction buffer/PIP2 (10 mM MgCl2, 5 mM DTT, 1.38 μM PIP2) mix with or without enzyme, followed by 5 μl/well of 400 μM ATP and incubated for an additional 30 minutes. The reaction was terminated by adding 5 μl/well stop solution (Millipore, Billerica, Mass.). 5 μl of detection mix (Millipore, Billerica, Mass.) was then added to each well and incubated for 6-18 hours in the dark. HRTF ratio was measured on a microplate reader (BMG Labtech., Germany) at an excitation wavelength of 337 nm and emission wavelengths of 665 and 615 nm with an integration time of 400 msec counting delay of 50 msec.

PI3Kα = PI3Kα (Homo sapiens, UniProt P42336); assay: Assay 1: Fluorescent (HTRF) determination of PI3 kinase enzyme activity, PI3Kα; format: biochemical
Chain of PI3Kα (P42336 whole entry): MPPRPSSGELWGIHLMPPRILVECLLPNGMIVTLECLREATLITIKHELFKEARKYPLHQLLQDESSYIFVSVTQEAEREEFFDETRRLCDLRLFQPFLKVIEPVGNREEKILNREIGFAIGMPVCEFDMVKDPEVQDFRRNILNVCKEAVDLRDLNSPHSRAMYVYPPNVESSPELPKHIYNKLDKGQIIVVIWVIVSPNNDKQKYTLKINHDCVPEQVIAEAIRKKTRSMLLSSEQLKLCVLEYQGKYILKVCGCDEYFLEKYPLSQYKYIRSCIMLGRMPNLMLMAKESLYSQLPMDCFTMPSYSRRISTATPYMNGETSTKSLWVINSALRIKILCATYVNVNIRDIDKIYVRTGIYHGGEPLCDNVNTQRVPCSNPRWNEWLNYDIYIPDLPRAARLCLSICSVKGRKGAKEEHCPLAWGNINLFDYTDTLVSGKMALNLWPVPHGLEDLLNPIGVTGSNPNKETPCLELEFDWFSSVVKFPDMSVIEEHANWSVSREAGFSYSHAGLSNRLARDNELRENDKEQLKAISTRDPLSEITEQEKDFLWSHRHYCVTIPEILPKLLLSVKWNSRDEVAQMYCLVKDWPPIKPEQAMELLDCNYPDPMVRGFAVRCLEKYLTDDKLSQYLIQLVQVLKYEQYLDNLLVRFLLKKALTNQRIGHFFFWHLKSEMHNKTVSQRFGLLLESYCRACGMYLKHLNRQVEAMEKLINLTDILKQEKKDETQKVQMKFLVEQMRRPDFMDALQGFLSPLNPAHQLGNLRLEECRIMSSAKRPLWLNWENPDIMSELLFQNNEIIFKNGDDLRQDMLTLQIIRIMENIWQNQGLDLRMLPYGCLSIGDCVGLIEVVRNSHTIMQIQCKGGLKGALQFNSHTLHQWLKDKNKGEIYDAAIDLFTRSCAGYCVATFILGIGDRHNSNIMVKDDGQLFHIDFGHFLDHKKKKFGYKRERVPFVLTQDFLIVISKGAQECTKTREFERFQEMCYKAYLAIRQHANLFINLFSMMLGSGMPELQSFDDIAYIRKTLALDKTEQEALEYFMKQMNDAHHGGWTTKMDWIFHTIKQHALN
Chain of PI3Kα (P27986 whole entry partner): as the sequence (P27986 whole entry partner, canonical isoform) above
Excerpt: as §3, §4

PI3Kγ = PI3Kγ (Homo sapiens, UniProt P48736); assay: Assay 1: Fluorescent (HTRF) determination of PI3 kinase enzyme activity, PI3Kγ; format: biochemical; details: read-out: IC50 (nM) PI3Kγ
Chain of PI3Kγ (P48736 whole entry): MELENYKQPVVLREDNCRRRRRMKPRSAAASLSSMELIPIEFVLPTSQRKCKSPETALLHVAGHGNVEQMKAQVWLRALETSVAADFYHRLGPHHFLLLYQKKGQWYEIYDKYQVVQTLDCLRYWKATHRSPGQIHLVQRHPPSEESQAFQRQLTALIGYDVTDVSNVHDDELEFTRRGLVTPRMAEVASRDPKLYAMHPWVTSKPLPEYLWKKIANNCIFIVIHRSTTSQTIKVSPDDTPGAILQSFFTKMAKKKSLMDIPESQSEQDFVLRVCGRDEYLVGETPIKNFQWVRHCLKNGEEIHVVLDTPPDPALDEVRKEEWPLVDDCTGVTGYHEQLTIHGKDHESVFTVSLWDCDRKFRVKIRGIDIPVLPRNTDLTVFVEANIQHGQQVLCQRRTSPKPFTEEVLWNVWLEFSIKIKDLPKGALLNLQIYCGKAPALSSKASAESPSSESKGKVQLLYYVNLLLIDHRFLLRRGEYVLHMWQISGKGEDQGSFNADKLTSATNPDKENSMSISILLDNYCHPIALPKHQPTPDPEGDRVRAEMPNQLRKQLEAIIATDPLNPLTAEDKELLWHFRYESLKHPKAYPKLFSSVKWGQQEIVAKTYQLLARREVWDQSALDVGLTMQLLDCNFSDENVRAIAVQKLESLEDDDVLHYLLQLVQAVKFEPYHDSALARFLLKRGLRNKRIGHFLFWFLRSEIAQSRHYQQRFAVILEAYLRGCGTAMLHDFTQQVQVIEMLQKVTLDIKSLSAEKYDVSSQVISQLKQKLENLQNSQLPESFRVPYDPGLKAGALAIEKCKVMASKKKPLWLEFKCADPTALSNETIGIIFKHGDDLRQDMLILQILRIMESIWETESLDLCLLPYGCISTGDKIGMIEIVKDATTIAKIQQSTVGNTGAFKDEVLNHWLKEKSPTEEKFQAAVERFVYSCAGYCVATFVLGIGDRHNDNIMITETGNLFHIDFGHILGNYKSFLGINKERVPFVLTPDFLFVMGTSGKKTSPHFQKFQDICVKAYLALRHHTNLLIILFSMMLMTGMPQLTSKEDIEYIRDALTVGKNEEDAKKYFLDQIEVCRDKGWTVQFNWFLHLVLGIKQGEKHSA
Excerpt: as §3, §4

PI3Kδ [7] = target: T1, PI3Kδ; assay: Assay 4: anti-FcεR1 induced CD63 expression in basophils from human whole blood; format: cell-based; parameters: endogenous in cells; host or cells: basophils in human whole blood; details: n=1, read-out: EC50 for FcεR1 (PI3K δ), CD63 positive basophils
Procedure: PI3K δ and γ signaling in basophils manifested by an alteration of anti-FcεR1 or fMLP induced CD63 expression is a useful pharmacodynamic marker determined using the Flow2CAST® kit (Buhlmann Laboratories, Switzerland). The test procedure involves the following steps: • Mix the anti-coagulated blood sample by inverting the venipuncture tube several times; • Prepare fresh and pyrogen-free 3.5 ml polypropylene or polystyrene tubes suitable for Flow Cytometry measurements; • Add 49 μl of patient's whole blood to each tube; • Add 1 μl of 10% DMSO (background) or test compound (10% DMSO) to the assigned tubes and mix gently. Incubate at room temperature for 15 minutes; • Pipet 50 μl of the Stimulation buffer (background) or anti-FcεRI Ab or fMLP to each tube; • Add 100 μl of Stimulation Buffer to each tube; • Mix gently. Add 20 μl Staining Reagent (1:1 mix of FITC-CD63 and PE-CCR3) to each tube; • Mix gently, cover the tubes and incubate for 15 minutes at 37° C. in a water bath. […]
Percent CD63 positive cells within the gated basophil population were determined in different treatment groups and normalized to vehicle control.

Metabolic stability in liver microsomes (percent parent compound remaining), Dog [1]: 83.5% | Metabolic stability in liver microsomes (percent parent compound remaining), Monkey [2]: 78.8% | fraction unbound at 4 h, 1 μM [3]: 0.0239 | fraction unbound at 4 h, 1 μM [4]: 0.0276 | AUC(0-t) [5]: 7.49 µM·h | Cmax [5]: 3.78 µM | Tmax [5]: 30 min | half-life [5]: 87 min | IC50 (PI3Kδ [6]): 30.5 nM | inhibition at 10 µM (PI3Kα): 23% | IC50 (PI3Kα; HTRF enzyme assay): > 10000 nM | Fold-Selectivity PI3Kα (PI3Kα; selectivity profile, enzyme IC50): >329 fold | IC50 (PI3Kγ): 48.7 nM | EC50 (PI3Kδ [7]): < 30 nM
SMILES: COc1ccc(-c2nn([C@@H](C)c3oc4cccc(F)c4c(=O)c3-c3cccc(F)c3)c3ncnc(N)c23)cc1NS(C)(=O)=O [Compound A1, (S)—N-(5-(4-amino-1-(1-(5-fluoro-3-(3-fluorophenyl)-4-oxo-4H-chromen-2-yl)ethyl)-1H-pyrazolo[3,4-d]pyrimidin-3-yl)-2-methoxyphenyl)methanesulfonamide]
